We go through 16 molecules from ChEMBL document CHEMBL3046056, “Design, synthesis, and biological activity of novel 4-(3,4-dimethoxyphenyl)-2-methylthiazole-5-carboxylic acid derivatives” (2004).

Structures are written as SMILES.

What all share (assay type): functional
Test [1] concerns Myzus persicae. Nature of the test: Insecticidal activity against Myzus persicae (green peach aphid) at 600 g ai/ha.
In test [2] the test system is Empoasca fabae. Nature of the test: Insecticidal activity against Empoasca fabae (potato leafhopper) at 600 g ai/ha.
Test [3] relates to Phytophthora infestans. The test is described as follows: Fungicidal activity against tomato late blight disease-causing Phytophthora infestans at 375 g ai/ha.
For test [4], the system named is Phytophthora infestans. The test is described as follows: Fungicidal activity against tomato late blight disease-causing Phytophthora infestans at 300 g ai/ha.
Test [5] relates to Empoasca fabae. Nature of the test: Insecticidal activity against Empoasca fabae (potato leafhopper) at 300 g ai/ha.
Test [6] relates to Myzus persicae. The test is described as follows: Insecticidal activity against Myzus persicae (green peach aphid) at 300 g ai/ha.

Consider `CCN(C)C(=O)c1sc(C)nc1-c1ccc(OC)c(OC)c1`, for which the Activity in test [1] was 40%; in test [2], 40%; in test [3] it was 0%.
Take `COc1ccc(-c2nc(C)sc2C(=O)O)cc1OC`: the figures for the Activity in test [1], in test [2] and in test [3] were 0%, 20% and 0%, respectively.
Take `COC(=O)c1sc(C)nc1-c1ccc(OC)c(OC)c1`: the Activity in test [1] came to 0%; in test [2], 40%; in test [3] it was 0%.
Turning to `COc1ccc(-c2nc(C)sc2C(=O)N(C)OC)cc1OC`, the Activity was found to be 20% in test [1], 20% in test [2] and 50% in test [3].
In the case of `COc1ccc(C(=CC(=O)N2CCOCC2)c2ccc(Cl)cc2)cc1OC` [DIMETHOMORPH], the Activity in test [4] is listed as 100%; in test [5], 0%; in test [6], 0%.
With `COc1ccc(-c2nc(C)sc2C(=O)N2CCOCC2)cc1OC`, the figures for the Activity in test [1], in test [2] and in test [3] were 20%, 20% and 90%, respectively.
For the molecule `COc1ccc(-c2nc(C)sc2C(=O)NCC#N)cc1OC`, the Activity in test [1], in test [2] and in test [3] was 0% in each case.
For the molecule `COc1ccc(-c2nc(C)sc2C(=O)NCCCn2ccnc2)cc1OC`, the Activity is reported as 0% in test [1], 0% in test [2] and 75% in test [3].
Regarding `CCN(CC)C(=O)c1sc(C)nc1-c1ccc(OC)c(OC)c1`, the values for the Activity in test [1], in test [2] and in test [3] were 0%, 40% and 0%, respectively.
For the molecule `COc1ccc(/C(=C\C(=O)N2CCOCC2)c2ccc(F)cc2)cc1OC` [FLUMORPH], the Activity in test [4] was found to be 100%; in test [5] it was 0%; in test [6], 0%.
Regarding `C#CC(C)(CC)NC(=O)c1sc(C)nc1-c1ccc(OC)c(OC)c1` (stereo not drawn), the Activity in test [1] turned out to be 20%; in test [2], 0%; in test [3] it was 90%.
The like results for `COc1ccc(-c2nc(C)sc2C(=O)Nc2ccccc2)cc1OC` were, in that order, 20%, 40% and 0%.
The corresponding values for `COc1ccc(-c2nc(C)sc2C(N)=O)cc1OC` are 0%, 20% and 0%.
The corresponding values for `C#CCOC(=O)c1sc(C)nc1-c1ccc(OC)c(OC)c1` are 20%, 20% and 0%.
Take `C#CC(C)(C)NC(=O)c1sc(C)nc1-c1ccc(OC)c(OC)c1`: the Activity in test [1] is 60%; in test [2], 40%; in test [3] it was 0%.
The corresponding values for `COc1ccc(-c2nc(C)sc2C(=O)OCC(C)C)cc1OC` are 20%, 20% and 75%.
